# Experimental data published in patent EP0428107A2, “Use of quinolyl-and isoquinolyloxanole-2-ones for the production of a medicament for the treatment of multi-drug resistant tumors” (MERRELL DOW PHARMACEUTICALS INC., priority 1989, dated 1991).
# Tested on: CHO^R cells
# Experiment: Reversal of multidrug resistance: cell growth of vinblastine-resistant CHO^R cells, Coulter counter cell count
# [1] = 72 h, read-out: % Inhibition of Cell Growth Compound Only
SMILES,inhibition at 0.1 µg/mL [1] [%],inhibition at 1 µg/mL [1] [%],inhibition at 5 µg/mL [1] [%],inhibition at 10 µg/mL [1] [%],"% Inhibition of Cell Growth Compound + VLB (compound 0.1 µg/ml + vinblastine 0.2 µg/ml, 72 hr) [%]","% Inhibition of Cell Growth Compound + VLB (compound 1 µg/ml + vinblastine 0.2 µg/ml, 72 hr) [%]","% Inhibition of Cell Growth Compound + VLB (compound 5 µg/ml + vinblastine 0.2 µg/ml, 72 hr) [%]","% Inhibition of Cell Growth Compound + VLB (compound 10 µg/ml + vinblastine 0.2 µg/ml, 72 hr) [%]","effect on cell growth (VLB alone at 0.2 µg/ml, 72 hr)"
CCCc1[nH]c(=O)oc1-c1ccnc2ccccc12 [4-Propyl-5-(4-Quinolinyl)-1-(3H)-Oxazolone],0,0,0,14,4,43,93,93,
"CC[C@]1(O)C[C@@H]2CN(CCc3c([nH]c4ccccc34)[C@@](C(=O)OC)(c3cc4c(cc3OC)N(C)[C@H]3[C@@](O)(C(=O)OC)[C@H](OC(C)=O)[C@]5(CC)C=CCN6CC[C@]43[C@@H]65)C2)C1 [VLB, vinblastine, reference compound]",,,,,,,,,did not have any effect on cell growth
